Reference: PubChem BioAssay (NCI)
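Dose response: 5 concentrations. Exposure: 48 h. Format: 96-well plates. Endpoint: linear interpolation; highest concentration if not reached. TGI: concentration producing complete growth inhibition.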

Columns and labels:
Test in all cases: NCI anticancer screen, dose series, 48 h
HL-60(TB) leukemia = tested on: HL-60(TB) leukemia
SK-MEL-5 melanoma = tested on: SK-MEL-5 melanoma
SNB-78 CNS = tested on: SNB-78 CNS
RXF 393 renal = tested on: RXF 393 renal
NCI-H23 lung = tested on: NCI-H23 lung
UACC-257 melanoma = tested on: UACC-257 melanoma
SW-620 colon = tested on: SW-620 colon
NCI-H460 lung = tested on: NCI-H460 lung
M19-MEL melanoma = tested on: M19-MEL melanoma
MOLT-4 leukemia = tested on: MOLT-4 leukemia
HCT-15 colon = tested on: HCT-15 colon
SF-268 CNS = tested on: SF-268 CNS
K-562 leukemia = tested on: K-562 leukemia
HT29 colon = tested on: HT29 colon
DLD-1 colon = tested on: DLD-1 colon
786-0 renal = tested on: 786-0 renal
M14 melanoma = tested on: M14 melanoma
CCRF-CEM leukemia = tested on: CCRF-CEM leukemia
SF-295 CNS = tested on: SF-295 CNS
HCT-116 colon = tested on: HCT-116 colon
COLO 205 colon = tested on: COLO 205 colon
HCC-2998 colon = tested on: HCC-2998 colon
HOP-92 NSCLC = tested on: HOP-92 NSCLC
DMS 273 small cell lung = tested on: DMS 273 small cell lung
SN12C renal = tested on: SN12C renal
RPMI-8226 leukemia = tested on: RPMI-8226 leukemia
NCI-H522 lung = tested on: NCI-H522 lung
IGROV1 ovarian = tested on: IGROV1 ovarian
KM20L2 colon = tested on: KM20L2 colon
OVCAR-4 ovarian = tested on: OVCAR-4 ovarian
OVCAR-8 ovarian = tested on: OVCAR-8 ovarian
TK-10 renal = tested on: TK-10 renal
SK-MEL-2 melanoma = tested on: SK-MEL-2 melanoma
EKVX NSCLC = tested on: EKVX NSCLC
DMS 114 small cell lung = tested on: DMS 114 small cell lung
OVCAR-3 ovarian = tested on: OVCAR-3 ovarian
LXFL 529 NSCLC = tested on: LXFL 529 NSCLC
A549 NSCLC = tested on: A549 NSCLC
SNB-75 CNS = tested on: SNB-75 CNS
KM12 colon = tested on: KM12 colon
U251 CNS = tested on: U251 CNS
ACHN renal = tested on: ACHN renal
XF 498 CNS = tested on: XF 498 CNS
LOX IMVI melanoma = tested on: LOX IMVI melanoma
OVCAR-5 ovarian = tested on: OVCAR-5 ovarian
HOP-62 NSCLC = tested on: HOP-62 NSCLC
SK-MEL-28 melanoma = tested on: SK-MEL-28 melanoma
MALME-3M melanoma = tested on: MALME-3M melanoma
UO-31 renal = tested on: UO-31 renal
RXF-631 renal = tested on: RXF-631 renal
SNB-19 CNS = tested on: SNB-19 CNS
SF-539 CNS = tested on: SF-539 CNS
UACC-62 melanoma = tested on: UACC-62 melanoma
NCI-H226 lung = tested on: NCI-H226 lung
A498 renal = tested on: A498 renal
SR leukemia = tested on: SR leukemia
HOP-18 NSCLC = tested on: HOP-18 NSCLC
CAKI-1 renal = tested on: CAKI-1 renal
SK-OV-3 ovarian = tested on: SK-OV-3 ovarian

SMILES: Cc1cc2c(c3c1c1ccccc1n3C)C(=O)c1ccccc1C2=O
- TGI (HL-60(TB) leukemia): > 100 µM
- TGI (SK-MEL-5 melanoma): > 100 µM
- TGI (SNB-78 CNS): > 100 µM
- TGI (RXF 393 renal): > 100 µM
- TGI (NCI-H23 lung): > 100 µM
- TGI (UACC-257 melanoma): > 100 µM
- TGI (SW-620 colon): > 100 µM
- TGI (NCI-H460 lung): > 100 µM
- TGI (M19-MEL melanoma): > 100 µM
- TGI (MOLT-4 leukemia): > 100 µM
- TGI (HCT-15 colon): > 100 µM
- TGI (SF-268 CNS): > 100 µM
- TGI (K-562 leukemia): > 100 µM
- TGI (HT29 colon): > 100 µM
- TGI (DLD-1 colon): > 100 µM
- TGI (786-0 renal): > 100 µM
- TGI (M14 melanoma): > 100 µM
- TGI (CCRF-CEM leukemia): > 100 µM
- TGI (SF-295 CNS): > 100 µM
- TGI (HCT-116 colon): > 100 µM
- TGI (COLO 205 colon): > 100 µM
- TGI (HCC-2998 colon): > 100 µM
- TGI (HOP-92 NSCLC): > 100 µM
- TGI (DMS 273 small cell lung): > 100 µM
- TGI (SN12C renal): > 100 µM
- TGI (RPMI-8226 leukemia): > 100 µM
- TGI (NCI-H522 lung): > 100 µM
- TGI (IGROV1 ovarian): > 100 µM
- TGI (KM20L2 colon): > 100 µM
- TGI (OVCAR-4 ovarian): > 100 µM
- TGI (OVCAR-8 ovarian): > 100 µM
- TGI (TK-10 renal): > 100 µM
- TGI (SK-MEL-2 melanoma): > 100 µM
- TGI (EKVX NSCLC): > 100 µM
- TGI (DMS 114 small cell lung): > 100 µM
- TGI (OVCAR-3 ovarian): > 100 µM
- TGI (LXFL 529 NSCLC): > 100 µM
- TGI (A549 NSCLC): > 100 µM
- TGI (SNB-75 CNS): > 100 µM
- TGI (KM12 colon): > 100 µM
- TGI (U251 CNS): > 100 µM
- TGI (ACHN renal): > 100 µM
- TGI (XF 498 CNS): > 100 µM
- TGI (LOX IMVI melanoma): > 100 µM
- TGI (OVCAR-5 ovarian): > 100 µM
- TGI (HOP-62 NSCLC): > 100 µM
- TGI (SK-MEL-28 melanoma): > 100 µM
- TGI (MALME-3M melanoma): > 100 µM
- TGI (UO-31 renal): > 100 µM
- TGI (RXF-631 renal): > 100 µM
- TGI (SNB-19 CNS): > 100 µM
- TGI (SF-539 CNS): > 100 µM
- TGI (UACC-62 melanoma): > 100 µM

SMILES: Cc1cc(C)nc(Sc2c([N+](=O)[O-])ncn2C)n1
- TGI (SK-MEL-5 melanoma): > 100 µM
- TGI (SNB-78 CNS): > 100 µM
- TGI (NCI-H23 lung): > 100 µM
- TGI (NCI-H226 lung): > 100 µM
- TGI (UACC-257 melanoma): > 100 µM
- TGI (SW-620 colon): > 100 µM
- TGI (NCI-H460 lung): > 100 µM
- TGI (M19-MEL melanoma): > 100 µM
- TGI (A498 renal): > 100 µM
- TGI (MOLT-4 leukemia): > 100 µM
- TGI (SF-268 CNS): > 100 µM
- TGI (K-562 leukemia): > 100 µM
- TGI (HT29 colon): > 100 µM
- TGI (DLD-1 colon): > 100 µM
- TGI (786-0 renal): > 100 µM
- TGI (M14 melanoma): > 100 µM
- TGI (CCRF-CEM leukemia): > 100 µM
- TGI (SF-295 CNS): > 100 µM
- TGI (HCT-116 colon): > 100 µM
- TGI (COLO 205 colon): > 100 µM
- TGI (HCC-2998 colon): > 100 µM
- TGI (HOP-92 NSCLC): > 100 µM
- TGI (DMS 273 small cell lung): > 100 µM
- TGI (SR leukemia): > 100 µM
- TGI (SN12C renal): > 100 µM
- TGI (RPMI-8226 leukemia): > 100 µM
- TGI (NCI-H522 lung): > 100 µM
- TGI (IGROV1 ovarian): > 100 µM
- TGI (OVCAR-4 ovarian): > 100 µM
- TGI (OVCAR-8 ovarian): > 100 µM
- TGI (TK-10 renal): > 100 µM
- TGI (HOP-18 NSCLC): 85.4 µM
- TGI (SK-MEL-2 melanoma): > 100 µM
- TGI (EKVX NSCLC): > 100 µM
- TGI (DMS 114 small cell lung): > 100 µM
- TGI (CAKI-1 renal): > 100 µM
- TGI (OVCAR-3 ovarian): > 100 µM
- TGI (LXFL 529 NSCLC): > 100 µM
- TGI (A549 NSCLC): > 100 µM
- TGI (SNB-75 CNS): > 100 µM
- TGI (SK-OV-3 ovarian): > 100 µM
- TGI (KM12 colon): > 100 µM
- TGI (U251 CNS): > 100 µM
- TGI (ACHN renal): > 100 µM
- TGI (XF 498 CNS): > 100 µM
- TGI (LOX IMVI melanoma): > 100 µM
- TGI (OVCAR-5 ovarian): > 100 µM
- TGI (HOP-62 NSCLC): > 100 µM
- TGI (SK-MEL-28 melanoma): > 100 µM
- TGI (MALME-3M melanoma): > 100 µM
- TGI (UO-31 renal): > 100 µM
- TGI (RXF-631 renal): > 100 µM
- TGI (SNB-19 CNS): > 100 µM
- TGI (SF-539 CNS): > 100 µM
- TGI (UACC-62 melanoma): > 100 µM
